How the values were obtained:
Motesanib + Vorinostat = compound: CC1(C)CNc2cc(NC(=O)c3cccnc3NCc3ccncc3)ccc21 [Motesanib] + O=C(CCCCCCC(=O)Nc1ccccc1)NO [Vorinostat] (partner 1 µM); experiment: relative viability (nuclei count vs DMSO), 5 days (fraction); higher = more cells survive
In short: (§1)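 The day after seeding in 1536-well plates, lung cancer cell lines were treated by pin tool with a single drug, or with a fixed anchor-drug dose together with five library-drug doses (not always all listed) in √10 steps. After 5 days, a combined fix-and-stain solution (final 0.05% Triton X-100, 1% formaldehyde, 1 ug/ml Hoechst) was added. Nuclei counted on 4× images gave relative viability as treated counts over vehicle counts, reported as the median of duplicate plates.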

Motesanib + AZD7762 = compound: CC1(C)CNc2cc(NC(=O)c3cccnc3NCc3ccncc3)ccc21 [Motesanib] + NC(=O)Nc1cc(-c2cccc(F)c2)sc1C(=O)N[C@H]1CCCNC1 [AZD7762] (partner 0.2 µM); experiment: as above
In short: as §1

Cell Line	relative viability (Motesanib + Vorinostat; first compound 0.01 µM)	relative viability (Motesanib + Vorinostat; first compound 0.03162 µM)	relative viability (Motesanib + Vorinostat; first compound 0.1 µM)	relative viability (Motesanib + Vorinostat; first compound 0.3162 µM)	relative viability (Motesanib + Vorinostat; first compound 1 µM)	relative viability (Motesanib + AZD7762; first compound 0.01 µM)	relative viability (Motesanib + AZD7762; first compound 0.03162 µM)	relative viability (Motesanib + AZD7762; first compound 0.1 µM)	relative viability (Motesanib + AZD7762; first compound 0.3162 µM)	relative viability (Motesanib + AZD7762; first compound 1 µM)
LOU-NH91	0.918	0.932	0.993	1	0.992	0.746	0.732	0.782	0.789	0.779
LU99A	0.473	0.593	0.505	0.645	0.484	0.39	0.361	0.382	0.399	0.355
LXF-289	0.766	0.719	0.78	0.932	0.751	1.07	1.06	1.14	1.22	1.16
NCI-H23	0.597	0.549	0.516	0.741	0.51	0.194	0.227	0.186	0.195	0.244
NCI-H322M	0.962	0.88	0.871	1.03	0.849	0.568	0.531	0.53	0.488	0.452
NCI-H358	0.641	0.67	0.71	0.819	0.649	0.434	0.626	0.481	0.661	0.55
NCI-H441	0.527	0.697	0.7	0.764	0.792	0.97	1.2	1.1	1.01	0.954
NCI-H460	0.635	0.696	0.716	0.726	0.666	0.56	0.633	0.772	0.653	0.611
NCI-H522	0.89	0.927	0.92	0.909	1.05	0.815	0.721	0.864	1	1
NCI-H596	0.586	0.546	0.56	0.511	0.711	0.973	0.825	1.09	1.01	1.13
NCI-H647	0.506	0.575	0.567	0.769	0.894	0.493	0.464	0.441	0.621	0.525
NCI-H650	0.435	0.439	0.554	0.549	0.477	1.05	1.09	1.07	0.965	1
NCI-H727	1.12	1.29	1.39	1.26	1.29	0.547	0.56	0.856	0.488	0.58
NCI-H838	0.735	0.75	0.801	0.779	0.737	0.895	0.872	0.984	1	0.994
NCI-H1355	0.635	0.659	0.707	0.702	0.593	0.778	0.54	0.837	0.687	0.673
NCI-H1395	0.56	0.526	0.707	0.794	0.677	0.387	0.372	0.39	0.405	0.399
NCI-H1437	0.927	0.73	0.759	0.799	0.852	1.05	1.08	1.15	1.11	1.11
NCI-H1648	0.314			0.557	0.421	0.496			0.702	0.597
NCI-H1651	0.475	0.605	0.575	0.583	0.581	0.401	0.499	0.547	0.451	0.463
NCI-H1666	0.926	0.978	1.06	1	1.02	0.809	0.927	1.02	0.898	0.909
NCI-H1734	0.741	0.821	0.813	0.805	0.865	0.548	0.648	0.584	0.499	0.457
NCI-H1755	0.672	0.759	0.808	0.945	0.747	0.407	0.45	0.467	0.425	0.383
NCI-H1793	0.836	0.776	0.725	0.892	0.757	0.41	0.243	0.605	0.514	0.413
NCI-H1915	0.603	0.489	0.479	0.544	0.527	0.676	0.66	0.747	0.711	0.755
NCI-H1944	0.52	0.562	0.51	0.634	0.537	0.425	0.476	0.532	0.541	0.472
NCI-H1975	0.738	0.616	0.707	0.739	0.652	0.656	0.686	0.752	0.821	0.709
NCI-H1993	0.63	0.757	0.881	0.746	0.813	0.788	0.725	0.595	0.676	0.863
NCI-H2085	0.825	0.823	0.821	0.824	0.866	1.02	0.933	1.14	0.953	0.987
NCI-H2087			0.561	0.764	0.791			1.41	1.13	1.55

From the supplement of paper PMC10307832
